The record followed here is US10407406B2, “2-halo-5-alkynyl-pyridyl nicotinic ligands” (Georgetown University, priority 2013, dated 2019).

Like-named read-outs stand apart in the source and are kept apart here.

One assay has as its target T1, rat α3β4 nAChRs (Rattus norvegicus, UniProt P04757+P12392).
T1 construct: expressed in transfected cells; host or cells: HEK 293
The experiment in a line: 86Rb+ efflux assay in cells expressing rat α3β4 nAChRs. Type of assay: cell-based. The following applies: for α3β4 Emax: efficacy compared to 100 μM (−)-nicotine; for Emax: read-out: α3β4 Emax. On the procedure: (§1) The functional properties of the ligands were determined by ^86Rb^| efflux assays in cells expressing α3β4 and α4β2 nAChR subtypes. The functional activity of each ligand was measured for its agonism, antagonism and desensitization ability. Agonist activity for each of the ligands was tested at eight different concentrations. […] The full concentration-effect curves generated potency (EC50) and efficacy (Emax) of each ligand. […] Each ligand was tested for antagonist activity at eight concentrations. The potency (IC50(0′)) of each ligand as an antagonist was derived from the full concentration-effect curves. […] Although ^86Rb^+ efflux assays are mainly used to determine functional properties, whole cell current measurements were also used to verify the key experiments.
(§2) In Vitro Effects on nAChR Function. […] Their agonist activities were assessed by measuring stimulated ^86Rb^+ efflux from stably transfected cells, either expressing human α4β2 nAChRs or rat α3β4 receptors.
(§3) The cell lines expressing defined rat nAChR subtypes were established previously by stably transfecting HEK 293 cells with rat nAChR subunit genes. The cell line expressing human α4β2 nAChRs, YXα4β2H1, was established recently. These cell lines were maintained in minimum essential medium (MEM) supplemented with 10% fetal bovine serum, 100 units/mL penicillin G, […] streptomycin and selective antibiotics at 37° C. with 5% CO2 in a humidified incubator. Fetal bovine scrum was provided by Gemini Bio-Products (Woodland, Calif.). Tissue culture medium and antibiotics were obtained from Invitrogen Corporation (Carlsbad, Calif.), unless otherwise stated.
(§4) Functional properties of compounds at nAChRs expressed in the transfected cells were measured using ^86Rb^+ efflux assays as described previously. In brief, cells expressing human α4β2 or rat α3β4 nAChRs were plated into 24-well plates coated with poly-D-lysine. The plated cells were grown at 37° C. for 18 to 24 hour to reach 85-95% confluence. The cells were then incubated in growth medium (0.5 mL/well) containing ^86Rb^+ (2 μCi/mL) for 4 hour at 37° C. The loading mixture was then aspirated, and the cells were washed four times with 1 mL buffer (15 mM HEPES, 140 mM NaCl, 2 mM KCl, 1 mM MgSO4, 1.8 mM CaCl2, 11 mM Glucose, pH 7.4). One mL of buffer with or without compounds to be tested was then added to each well. After incubation for 2 min, the assay buffer was collected for measurements of ^86R^+ released from the cells. Cells were then lysed by adding 1 mL of 100 mM NaOH to each well, and the lysate was collected for determination of the amount of ^86Rb^+ that was in the cells at the end of the efflux assay. Radioactivity of assay samples and lysates was measured by liquid scintillation counting. Total loading (cpm) was calculated as the sum of the assay sample and the lysate of each well. The amount of ^86Rb^+ efflux was expressed as a percentage of ^86Rb^| loaded. […] For obtaining EC50 and Emax values, stimulation curves were constructed in which 8 different concentrations of a ligand were included in the assay. […] EC50, Emax and IC50(10′) values were determined by nonlinear least-squares regression analyses (GraphPad, San Diego, Calif.).

Another assay concerns the target T2, α7 nAChR (Rattus norvegicus, UniProt Q05941).
T2 construct: expressed in transfected cells; host or cells: HEK 293
In words: biochemical. Type of assay: binding. Particulars: competition against [3H]-epibatidine. From the text: (§5) Pharmacological Properties. We measured the in vitro binding affinities of the ligands for defined receptor subtypes (α2β2, α2β4, α3β2, α3β4, α4β2, α4β4, α6β2, α6β4, and α7) expressed in stably transfected cell lines. […] Rat forebrain homogenates were included to allow comparison between the heterologous and native α4β2 and α7 nAChRs.
(§6) To determine selectivities of these compounds in binding assays among the three predominant nAChR subtypes, α3β4, α4β2, and α7, the ratios of Ki values (α3β4/α4β2 and α7/α4β2) were determined.
The cell lines expressing defined rat nAChR subtypes were established previously by stably transfecting HEK 293 cells with rat nAChR subunit genes. The cell line expressing human α4β2 nAChRs, YXα4β2H1, was established recently. These cell lines were maintained in minimum essential medium (MEM) supplemented with 10% fetal bovine serum, 100 units/mL penicillin G, […] and selective antibiotics at 37° C. with 5% CO2 in a humidified incubator. […]
Briefly, cultured cells at >80% confluence were removed from their flasks (80 cm^2) with a disposable cell scraper and placed in 10 mL of 50 mM Tris⋅HCl buffer (pH 7.4, 4° C.). […] The filter-retained radioactivity was measured by liquid scintillation counting. […] Data from competition binding assays were analyzed using Prism 5 (GraphPad Software, San Diego, Calif.).

For another assay, the target named is T3, α3β4 nAChR (Rattus norvegicus, UniProt P04757+P12392).
T3 construct: expressed in transfected cells; host or cells: HEK 293
The experiment in a line: [3H]-epibatidine competition binding, α3β4 nAChR in stably transfected HEK 293 cells. The following applies: competition against [3H]-epibatidine.
Excerpt: as §5, §6, §3
(§7) Briefly, cultured cells at >80% confluence were removed from their flasks (80 cm^2) with a disposable cell scraper and placed in 10 mL of 50 mM Tris⋅HCl buffer (pH 7.4, 4° C.). The cell suspension was centrifuged at 10,000×g for 5 min and the pellet was collected. The cell pellet was then homogenized in 10 mL buffer with a polytron homogenizer and centrifuged at 36,000 g for 10 min at 4° C. The membrane pellet was resuspended in fresh buffer, and aliquots of the membrane preparation were used for binding assays. […] Bound and free ligands were separated by vacuum filtration through Whatman GF/C filters treated with 0.5% polyethylenimine. The filter-retained radioactivity was measured by liquid scintillation counting. Specific binding was defined as the difference between total binding and nonspecific binding. Data from competition binding assays were analyzed using Prism 5 (GraphPad Software, San Diego, Calif.).

A further assay addresses T4, human α4β2 nAChRs (Homo sapiens, UniProt P17787+P43681).
T4 construct: expressed in transfected cells
In words: 86Rb+ efflux assay in cells expressing human α4β2 nAChRs. Type of assay: cell-based. Particulars: for IC50: desensitization, 10 min pre-treatment before 100 μM (−)-nicotine; for α4β2 Emax: efficacy compared to 100 μM (−)-nicotine. As to the method: as §1, §2, §3, §4

In a further assay the target is T5, α4β2 nAChR (Rattus norvegicus, UniProt P09483+P12390).
T5 construct: expressed in transfected cells; host or cells: HEK 293
In words: [3H]-epibatidine competition binding, α4β2 nAChR in stably transfected HEK 293 cells. Particulars: competition against [3H]-epibatidine.
Excerpt: as §5, §6, §3, §7

The mark [1] stands for this setting: agonist activity, stimulated 86Rb+ efflux, read-out: α3β4 EC50.

On to `OCCCCC#Cc1cncc(OC[C@@H]2CCN2)c1` [Sazetidine-A], for which the EC50 on rat α3β4 nAChRs (setting [1]) came to 730 nM; on human α4β2 nAChRs (agonist activity, stimulated 86Rb+ efflux, read-out: α4β2 EC50), 24 nM. Further, the IC50 stood at 1300 nM at rat α3β4 nAChRs (desensitization, 10 min pre-treatment before 100 μM (−)-nicotine) and 11 nM on human α4β2 nAChRs. In addition, the “α3β4 Emax” value at rat α3β4 nAChRs is listed as 96%. In addition, the Ki on α7 nAChR was 670 nM; at α3β4 nAChR, 6.5 nM; on α4β2 nAChR it was 0.034 nM. The “α4β2 Emax” value at human α4β2 nAChRs was determined as 40%.
Turning to `FCCCCC#Cc1cnc(F)c(OC[C@@H]2CCN2)c1` [YL-2-203, (S)-3-(azetidin-2-ylmethoxy)-2-fluoro-5-(6-fluorohex-1-ynyl)pyridine di-trifluoroacetic acid], the EC50 on rat α3β4 nAChRs came out at 6300 nM; at human α4β2 nAChRs, 35 nM. The Emax on rat α3β4 nAChRs is 26%; on human α4β2 nAChRs (read-out: α4β2 Emax, efficacy compared to 100 μM (−)-nicotine) it was under 33%. Also, on rat α3β4 nAChRs (stimulated 86Rb+ efflux), the “agonist activity at the α3β4 nAChRs (in words)” value is reported as “did not show detectable agonist activity”. Moreover, the results for the Ki on α7 nAChR, on α3β4 nAChR and at α4β2 nAChR were 11000 nM, 93 nM and 0.2 nM, respectively. Besides, the “α4β2 Emax” value on human α4β2 nAChRs (di-trifluoroacetic acid) is recorded as 33%.
Turning to `CCCCC#Cc1cnc(C)c(OC[C@@H]2CCN2)c1` [YL-1-127, (S)-3-(azetidin-2-ylmethoxy)-5-(hex-1-ynyl)-2-methylpyridine], on rat α3β4 nAChRs, the EC50 was 11000 nM and the Emax came out at 10%. Further, on rat α3β4 nAChRs (stimulated 86Rb+ efflux), the “agonist activity at the α3β4 nAChRs (in words)” value is “did not show detectable agonist activity”. On α3β4 nAChR, this compound registered a Ki of 575 nM. For the same compound, the IC50 on human α4β2 nAChRs amounted to 260 nM. In addition, the Ki at α4β2 nAChR was 14 nM.
With `c1cnc2cc3c(cc2n1)[C@@H]1CNC[C@H]3C1` [Varenicline], the EC50 on rat α3β4 nAChRs (setting [1]) amounted to 3200 nM. In addition, the “α3β4 Emax” value on rat α3β4 nAChRs amounted to 82%. In addition, the inhibitory constant (Ki) on α3β4 nAChR was 27 nM; on α4β2 nAChR, 0.14 nM.
As to `CN1CCCC1c1cccnc1` (single isomer, unassigned; (-)) [(−)-Nicotine], the “agonist activity at the α4β2 nAChRs (in words)” value at human α4β2 nAChRs was “full agonist activities”. Moreover, the Emax at human α4β2 nAChRs (read-out: α4β2 Emax) is 100%.
